According to patent publication US11840686B2, “Modulation of prekallikrein (PKK) expression” (Ionis Pharmaceuticals, Inc., priority 2013, dated 2023):
Strand notation (5' to 3'): a small letter for the sugar, then the base; units joined by * are phosphorothioate-linked, units joined directly phosphodiester-linked; [ ] holds rarer units or linkages, { } end groups; capitals alone tell only the bases. e = 2'-O-(2-methoxyethyl) (MOE); k = constrained ethyl (cEt); [5mC] = 5-methylcytosine; d = 2'-deoxy (DNA)

Tested on: human PKK mRNA
Assay: Antisense inhibition of human PKK mRNA in HepaRG cells, 1,000 nM, MOE/deoxy/cEt oligonucleotides (Example 3)
Assay type: cell-based
Experimental: Additional antisense oligonucleotides were designed targeting a PKK nucleic acid and were tested for their effects on PKK mRNA in vitro.
The chimeric antisense oligonucleotides in the tables below were designed as deoxy, MOE and cEt gapmers. The gapmers are 16 nucleosides in length wherein the nucleoside have either a MOE sugar modification, a cEt sugar modification, or a deoxy modification. The ‘Chemistry’ column describes the sugar modifications of each oligonucleotide. ‘k’ indicates an cEt sugar modification; the number indicates the number of deoxynucleosides; otherwise, indicates a deoxynucleoside; and ‘e’ indicates a 2′-O-methoxyethyl modification. The internucleoside linkages throughout each gapmer are phosphorothioate linkages. All cytosine residues throughout each oligonucleotide are 5-methylcytosines. “Start site” indicates the 5′-most nucleoside to which the gapmer is targeted in the human gene sequence. “Stop site” indicates the 3′-most nucleoside to which the gapmer is targeted in the human gene sequence.
Cultured HepaRG™ cells at a density of 20,000 cells per well were transfected using electroporation with 1,000 nM antisense oligonucleotide. After a treatment period of approximately 24 hours, RNA was isolated from the cells and PKK mRNA levels were measured by quantitative real-time PCR. Human primer probe set RTS3454 was used to measure mRNA levels. ISIS 531231 was also included in this assay. PKK mRNA levels were adjusted according to total RNA content, as measured by RIBOGREEN®. The antisense oligonucleotides were tested in a series of experiments that had similar culture conditions. Results are presented as percent inhibition of PKK, relative to untreated control cells.

[1] = HepaRG cells, electroporation with 1,000 nM antisense oligonucleotide, approximately 24 hours, primer probe set RTS3454, relative to untreated control cells, experiment of Table 23
[2] = Table 27, HepaRG cells, 1,000 nM antisense oligonucleotide, human PKK mRNA
[3] = Table 22 experiment, HepaRG cells, electroporation with 1,000 nM antisense oligonucleotide, approx. 24 hours, PKK mRNA by RT-PCR (RTS3454), relative to untreated control cells
[4] = Table 21 experiment, HepaRG cells, electroporation with 1,000 nM antisense oligonucleotide, approx. 24 hours, PKK mRNA by RT-PCR (RTS3454), relative to untreated control cells
[5] = Table 19, HepaRG cells, electroporation with 1,000 nM antisense oligonucleotide, approximately 24 hours, PKK mRNA by RT-PCR (RTS3454), relative to untreated control cells
[6] = HepaRG cells, 1,000 nM antisense oligonucleotide, Table 29
[7] = HepaRG cells, electroporation with 1,000 nM antisense oligonucleotide, approximately 24 hours, primer probe set RTS3454, relative to untreated control cells, experiment of Table 24

For “547935 (eA*e[5mC]*kT*d[5mC]*dG*dA*dT*dT*dT*dT*d[5mC]*d[5mC]*dA*kT*kA*e[5mC]; antisense) [compound 547935]”, the “% inhibition” value [1] was 27%.
With “547991 (antisense eT*eA*k[5mC]*dA*dG*dT*d[5mC]*dT*dT*d[5mC]*dT*dG*dG*kG*kA*eG) [compound 547991]” the “% inhibition” value [1] was 0%.
In the case of “548305 (eG*eT*kT*d[5mC]*dT*dT*dG*d[5mC]*dT*dT*dA*dT*d[5mC]*k[5mC]*kT*e[5mC]; antisense) [compound 548305]”, the “% inhibition” value [2] is reported as 55%.
“548184 (eA*e[5mC]*kA*dG*dT*d[5mC]*dA*dT*dG*dG*dA*dG*dA*kT*k[5mC]*eT; antisense) [compound 548184]” was tested, and the “% inhibition” value (HepaRG cells, electroporation with 1,000 nM antisense oligonucleotide, approx. 24 hours, PKK mRNA by RT-PCR (RTS3454), relative to untreated control cells, Table 25 experiment) was 73%.
“547937 (eT*eG*kT*dG*dA*d[5mC]*dT*d[5mC]*dG*dA*dT*dT*dT*kT*k[5mC]*e[5mC]; antisense) [compound 547937]” was tested, and the “% inhibition” value [1] was 56%.
“547888 (eT*e[5mC]*k[5mC]*dG*dG*dT*dA*d[5mC]*dT*d[5mC]*dT*dG*d[5mC]*k[5mC]*kT*eT; antisense) [compound 547888]” was tested, and the “% inhibition” value [3] was 99%.
For “547809 (eT*e[5mC]*kA*dT*d[5mC]*dT*dG*dG*d[5mC]*dA*dG*dT*dA*kT*kT*eG; antisense) [compound 547809]”, the “% inhibition” value [4] was 33%.
For “548087 (antisense eA*e[5mC]*kT*dA*dA*dG*dG*dG*dA*d[5mC]*d[5mC]*dA*d[5mC]*k[5mC]*kT*eG) [compound 548087]”, the “% inhibition” value [5] was 24%.
With “548535 (antisense eG*eA*kG*dT*d[5mC]*dT*dT*dT*d[5mC]*d[5mC]*dA*dA*dT*k[5mC]*k[5mC]*eT) [compound 548535]” the “% inhibition” value (Table 28, HepaRG cells, 1,000 nM antisense oligonucleotide, human PKK mRNA) was 13%.
“548117 (antisense e[5mC]*eT*k[5mC]*dA*dT*dG*d[5mC]*dT*dG*dG*dT*dG*dA*k[5mC]*kT*eG) [compound 548117]” was tested, and the “% inhibition” value [5] was 73%.
With “548349 (antisense eT*e[5mC]*k[5mC]*dA*dG*dA*dA*dT*dA*d[5mC]*dT*dG*d[5mC]*k[5mC]*k[5mC]*e[5mC]) [compound 548349]” the “% inhibition” value [2] was 61%.
For “548609 (antisense eG*eA*kT*d[5mC]*dG*dG*dT*dG*dG*dT*dG*dG*dG*kA*kT*eT) [compound 548609]”, the “% inhibition” value [6] was 30%.
With “547889 (eT*eT*k[5mC]*d[5mC]*dG*dG*dT*dA*d[5mC]*dT*d[5mC]*dT*dG*k[5mC]*k[5mC]*eT; antisense) [compound 547889]” the “% inhibition” value (Table 20, HepaRG cells, electroporation with 1,000 nM antisense oligonucleotide, approximately 24 hours, PKK mRNA by RT-PCR (RTS3454), relative to untreated control cells) was 91% and the “% inhibition” value [3] was 97%.
“548328 (antisense eG*eG*kT*d[5mC]*d[5mC]*dT*dT*dG*dA*dA*d[5mC]*d[5mC]*d[5mC]*k[5mC]*kG*eT) [compound 548328]” was tested, and the “% inhibition” value [2] was 68%.
In the case of “547773 (antisense eT*e[5mC]*kT*dT*dG*dG*dA*dG*dG*dT*dG*dA*dG*kT*k[5mC]*eT) [compound 547773]”, the “% inhibition” value [4] is reported as 47%.
“548044 (eT*eG*kG*dT*dG*dA*dA*dT*dA*dA*dT*dA*dA*kT*k[5mC]*eT; antisense) [compound 548044]” was tested, and the “% inhibition” value [7] was 12%.
“548017 (e[5mC]*eA*kA*dG*dA*dA*dG*dA*dG*dT*dT*dT*dG*kT*kT*e[5mC]; antisense) [compound 548017]” was tested, and the “% inhibition” value [7] was 3%.
For “548438 (antisense e[5mC]*eT*kA*dT*dA*dT*d[5mC]*dA*d[5mC]*dT*dG*dT*dA*k[5mC]*k[5mC]*eT) [compound 548438]”, the “% inhibition” value (Table 30, human PKK mRNA, HepaRG cells, 1,000 nM antisense oligonucleotide) was 38%.
In the case of “548544 (antisense eG*e[5mC]*kT*dG*dT*dG*dA*d[5mC]*dT*d[5mC]*dA*dG*dA*kT*k[5mC]*eA) [compound 548544]”, the “% inhibition” value [6] is reported as 62%.
For “548316 (e[5mC]*eT*kG*dT*dT*d[5mC]*dA*dG*dG*dT*dA*dG*d[5mC]*kA*k[5mC]*eA; antisense) [compound 548316]”, the “% inhibition” value [2] was 64%.
With “547825 (eT*e[5mC]*kG*dA*dT*dG*dT*dA*d[5mC]*dT*dT*dT*dT*kG*kG*e[5mC]; antisense) [compound 547825]” the “% inhibition” value [4] was 59%.
For “547819 (e[5mC]*eA*kT*dT*dG*dA*dT*dT*dG*dA*dA*d[5mC]*dT*kT*kG*e[5mC]; antisense) [compound 547819]”, the “% inhibition” value [4] was 11%.
